Assay results as given in ChEMBL document CHEMBL5226312, “Structural Evolution and Translational Potential for Agonists and Antagonists of Endosomal Toll-like Receptors” (J Med Chem, 2021).
Blank lines part the entries; values can stand above or below the molecule they belong to.

Columns and labels:
Splenocyte = test: Induction IFN production in C3H/HeJ mouse Splenocytes measured after 18 hrs; format: functional; settings: read-out: MEC
[1] = Antagonist activity at mouse CpG-oligonucleotide in mouse WEHI-231 cells assessed as inhibition of CpG-oligonucleotide induced thymidine uptake preincubated for 16 hrs followed by 3H-thymidine addition and measured after 4 hrs in presence of anti-serum IgM by radioactivity analysis; format: cell-based; settings: WEHI231
Toll-like receptor 8 = target: T1, Toll-like receptor 8 (Homo sapiens, UniProt Q9NR97); test: Agonist activity at human TLR8 stably expressed in human HEK-Blue hTLR8 cells assessed as activation of NFkappaB by SAP reporter gene based spectrophotometric assay; format: cell-based
T1 sequence (Q9NR97 whole entry): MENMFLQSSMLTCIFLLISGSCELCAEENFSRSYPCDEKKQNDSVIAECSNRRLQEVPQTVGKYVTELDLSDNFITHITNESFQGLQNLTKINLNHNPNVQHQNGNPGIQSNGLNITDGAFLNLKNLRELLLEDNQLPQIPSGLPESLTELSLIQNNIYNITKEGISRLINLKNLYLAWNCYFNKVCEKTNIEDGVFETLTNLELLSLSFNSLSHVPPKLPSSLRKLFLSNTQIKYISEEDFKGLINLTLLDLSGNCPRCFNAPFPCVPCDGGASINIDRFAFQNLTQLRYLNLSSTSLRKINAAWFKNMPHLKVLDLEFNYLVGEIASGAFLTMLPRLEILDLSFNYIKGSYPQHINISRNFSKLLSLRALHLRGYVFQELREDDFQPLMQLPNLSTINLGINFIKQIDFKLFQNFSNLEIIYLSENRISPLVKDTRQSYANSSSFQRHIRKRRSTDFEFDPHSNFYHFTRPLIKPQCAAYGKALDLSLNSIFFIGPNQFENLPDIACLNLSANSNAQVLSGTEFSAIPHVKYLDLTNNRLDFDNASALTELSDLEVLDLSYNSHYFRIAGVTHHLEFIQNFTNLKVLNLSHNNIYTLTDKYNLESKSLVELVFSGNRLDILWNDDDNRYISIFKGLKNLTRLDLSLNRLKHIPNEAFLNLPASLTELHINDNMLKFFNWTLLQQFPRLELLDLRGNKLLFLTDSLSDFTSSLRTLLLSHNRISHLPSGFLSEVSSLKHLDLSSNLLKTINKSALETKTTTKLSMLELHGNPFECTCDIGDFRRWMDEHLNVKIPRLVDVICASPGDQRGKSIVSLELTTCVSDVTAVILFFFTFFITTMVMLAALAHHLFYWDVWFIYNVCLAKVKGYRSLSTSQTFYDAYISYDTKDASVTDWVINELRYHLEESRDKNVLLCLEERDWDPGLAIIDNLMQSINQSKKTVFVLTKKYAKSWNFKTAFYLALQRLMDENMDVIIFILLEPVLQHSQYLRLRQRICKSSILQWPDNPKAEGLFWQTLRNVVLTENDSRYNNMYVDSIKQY

[2] = Antagonist activity at monkey TLR7 expressed in Drosophila S2 cells by ITC analysis; design: species or system Macaca mulatta
[3] = Antagonist activity at mouse CpG-oligonucleotide in mouse WEHI-231 cells assessed as inhibition of CpG-oligonucleotide induced thymidine uptake in presence of anti-serum IgM; format: cell-based; settings: WEHI231
Toll-like receptor 7 = target: T2, Toll-like receptor 7 (Homo sapiens, UniProt Q9NYK1); test: Agonist activity at human TLR7
T2 sequence (Q9NYK1 whole entry): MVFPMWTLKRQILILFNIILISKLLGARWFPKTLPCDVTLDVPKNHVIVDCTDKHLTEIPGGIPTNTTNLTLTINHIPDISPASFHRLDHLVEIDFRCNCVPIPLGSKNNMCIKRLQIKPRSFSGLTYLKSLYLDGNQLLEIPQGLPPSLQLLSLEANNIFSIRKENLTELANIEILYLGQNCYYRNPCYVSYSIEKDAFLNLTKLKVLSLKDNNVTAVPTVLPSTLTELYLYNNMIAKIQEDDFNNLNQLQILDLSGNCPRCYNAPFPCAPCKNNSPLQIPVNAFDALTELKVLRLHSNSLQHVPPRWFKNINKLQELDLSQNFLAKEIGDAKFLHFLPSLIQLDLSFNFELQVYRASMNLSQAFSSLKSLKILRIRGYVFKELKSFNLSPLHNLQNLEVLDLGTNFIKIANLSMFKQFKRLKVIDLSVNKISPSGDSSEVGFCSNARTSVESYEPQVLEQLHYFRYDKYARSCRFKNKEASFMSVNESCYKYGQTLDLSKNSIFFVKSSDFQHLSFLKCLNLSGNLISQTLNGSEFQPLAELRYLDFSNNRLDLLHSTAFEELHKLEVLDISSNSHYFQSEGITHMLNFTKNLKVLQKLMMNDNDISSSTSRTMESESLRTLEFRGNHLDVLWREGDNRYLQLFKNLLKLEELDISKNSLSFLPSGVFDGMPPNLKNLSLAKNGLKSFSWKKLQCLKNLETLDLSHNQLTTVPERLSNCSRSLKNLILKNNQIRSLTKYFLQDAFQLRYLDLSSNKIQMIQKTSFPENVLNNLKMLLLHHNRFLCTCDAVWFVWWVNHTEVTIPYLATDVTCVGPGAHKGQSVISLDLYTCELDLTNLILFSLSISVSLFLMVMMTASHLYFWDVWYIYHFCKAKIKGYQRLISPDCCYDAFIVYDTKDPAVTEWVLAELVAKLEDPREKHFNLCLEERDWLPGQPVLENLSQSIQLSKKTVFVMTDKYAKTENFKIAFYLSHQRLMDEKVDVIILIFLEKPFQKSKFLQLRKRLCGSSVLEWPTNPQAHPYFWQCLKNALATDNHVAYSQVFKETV

SMILES: CCCCOc1nc(N)c2[nH]c(=O)n(Cc3ccccc3)c2n1
minimal effective concentration (Splenocyte): 0.001 µM

SMILES: CN(C)CCNc1cc(-c2ccc(N3CCN(C)CC3)cc2)nc2ccccc12
EC50 [1]: 0.76 nM

SMILES: CCCCOc1nc(N)c2nc(S)n(Cc3ccccc3)c2n1
minimal effective concentration (Splenocyte): 0.001 µM

SMILES: CCCCCc1nc(N)c2[nH]c(=O)n(Cc3ccccc3)c2n1
minimal effective concentration (Splenocyte): 0.01 µM

SMILES: CCOc1nc(N)c2nc(-c3cncc(F)c3)n(Cc3ccc(CN4C[C@H]5C[C@@H]4CN5C)cc3)c2n1
IC50 [2]: 25 nM

SMILES: CN1CCN(Cc2cc(Nc3cc(-c4ccc5ccccc5c4)nc4ccccc34)cc(CN3CCN(C)CC3)c2O)CC1
EC50 [3]: 0.24 nM

SMILES: CCN(CC)CCCC(C)Nc1cc(-c2ccccc2)nc2ccccc12 (centres undefined)
EC50 [3]: 51.3 nM

Further lines, results first:

EC50 [1]: 7.07 nM
SMILES: CN(C)CCNc1cc(-c2ccc(CN3CCN(C)CC3)cc2)nc2ccccc12

EC50 [1]: 58 nM
SMILES: CN1CCN(Cc2ccc(-c3cc(N4CCN(C)CC4)c4ccccc4n3)cc2)CC1

EC50 (Toll-like receptor 8): 410 nM
SMILES: CCCCc1nc2c(N)nc3ccccc3c2s1

IC50 [2]: 25 nM
SMILES: CCOc1nc(C)c2nc(-c3cncc(F)c3)n(Cc3ccc(CN4C[C@H]5C[C@@H]4CN5C)cc3)c2n1

EC50 [3]: 9.1 nM
SMILES: CN(C)CCNc1cc(-c2ccc3ccccc3c2)nc2ccccc12

EC50 [3]: 110 nM
SMILES: CCN(CC)CCCC(C)Nc1ccnc2cc(Cl)ccc12 (centres undefined) [CHLOROQUINE]

EC50 (Toll-like receptor 7): 2210 nM
SMILES: CC(C)Cn1cnc2c(N)nc3ccccc3c21 [IMIQUIMOD]
